The text below walks through data of PubChem BioAssay AID1645863 (Buhrlage Lab, Dana-Farber Cancer Institute and Novartis …, 2021).

Activity calls are given as the source filed them. How the calls were made is not given here. Bounds are passed on as bounds.

In this assay the target is Ubiquitin carboxyl-terminal hydrolase 10 (Homo sapiens) (UniProt Q14694). Kind of assay: primary hit verification, biochemical, ubiquitin-specific protease 10 deubiquitylase inhibitors, concentration-effect titration (AID 1645863).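 Further: potency values describe inhibition of USP10 cleavage of a fluorogenic ubiquitin substrate.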 To be noted: USP10 deubiquitinase enzymatic assay.
Chain of Ubiquitin carboxyl-terminal hydrolase 10 (Homo sapiens) (Q14694 whole entry, looked up): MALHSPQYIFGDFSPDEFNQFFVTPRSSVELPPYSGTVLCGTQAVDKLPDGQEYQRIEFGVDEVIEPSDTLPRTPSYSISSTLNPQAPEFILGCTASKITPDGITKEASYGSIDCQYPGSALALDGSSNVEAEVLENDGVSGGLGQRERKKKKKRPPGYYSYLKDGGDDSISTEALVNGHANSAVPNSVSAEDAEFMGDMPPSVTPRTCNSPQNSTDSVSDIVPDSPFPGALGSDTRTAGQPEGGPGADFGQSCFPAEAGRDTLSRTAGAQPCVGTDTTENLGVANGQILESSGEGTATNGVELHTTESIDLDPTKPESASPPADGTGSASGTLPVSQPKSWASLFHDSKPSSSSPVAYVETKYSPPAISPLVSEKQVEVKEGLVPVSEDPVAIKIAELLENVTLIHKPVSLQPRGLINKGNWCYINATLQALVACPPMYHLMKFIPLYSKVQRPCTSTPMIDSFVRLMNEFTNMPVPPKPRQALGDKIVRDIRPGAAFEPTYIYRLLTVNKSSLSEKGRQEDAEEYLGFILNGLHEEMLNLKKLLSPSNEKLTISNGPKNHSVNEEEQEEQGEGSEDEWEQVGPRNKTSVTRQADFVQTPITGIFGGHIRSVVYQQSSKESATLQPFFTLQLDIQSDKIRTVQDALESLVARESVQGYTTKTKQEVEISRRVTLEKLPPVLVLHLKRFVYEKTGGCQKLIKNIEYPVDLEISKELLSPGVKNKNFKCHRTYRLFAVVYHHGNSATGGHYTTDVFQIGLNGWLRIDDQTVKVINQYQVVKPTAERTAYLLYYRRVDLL
The term IC50 denotes the concentration that gives 50% inhibition. As for `Cc1ccc(CC(=O)Nc2ccc(C)cc2-c2n[nH]c(C3CC3)n2)cc1`, the IC50 is > 40 µM (inactive).

For the compound `O=C(Nc1ccc(Cl)cc1F)c1cc(-c2ccccn2)n[nH]1`, the IC50 was > 40 µM (inactive).

With `Cc1nc(SCC(=O)NC(C)c2ccccc2)c2oc3ccccc3c2n1` (stereo not drawn), the IC50 was > 40 µM (inactive).

In the case of `COc1ccc(S(=O)(=O)NCc2ccc3c(c2)cc(C)n3C)cc1`, the IC50 was > 40 µM (inactive).

For the compound `CCOc1ccc2c(c1)c(=O)c(C(=O)c1ccccc1)cn2CC(=O)Nc1ccc(OC)cc1`, the IC50 is > 40 µM (inactive).

Turning to `Cc1ccc2[nH]cc(S(=O)(=O)c3cc(F)cc(F)c3)c(=O)c2c1`, the IC50 is > 40 µM (inactive).

Consider `O=C(CN1CC=C(c2ccccc2)CC1)Nc1ccc(S(=O)(=O)N2CCOCC2)cc1`, for which the IC50 was > 40 µM (inactive).

Take `Cc1ccccc1Cn1c(=O)n(CC2CCC(C(=O)NC3CCCC3)CC2)c(=O)c2ccccc21` (stereo not drawn): the IC50 was > 40 µM (inactive).

For `O=C(c1cnccn1)N1CC[C@@H]2CNS(=O)(=O)[C@@H]2CC1`, the IC50 is > 40 µM (inactive).

As for `O=C(c1ccco1)N1CCCC1c1nc(-c2ccccc2)n[nH]1` (stereo not drawn), the IC50 was > 40 µM (inactive).

Turning to `Cc1ccc(C(=O)c2cn(CC(=O)Nc3ccc4c(c3)OCO4)c3ccccc3c2=O)cc1`, the IC50 was 16.4 µM.

With `COC(=O)c1ccccc1NC(=O)Cn1c(=O)n(CCCC(=O)NCc2ccco2)c(=O)c2ccccc21`, the IC50 was 13 µM.

As to `O=C(Nc1ccc(F)cc1F)c1cc(-c2ccccn2)n[nH]1`, the IC50 is > 40 µM (inactive).

Regarding `O=C(CCCn1c(=O)c2sccc2n(CC(=O)NCCC2=CCCCC2)c1=O)NCc1ccc2c(c1)OCO2`, the IC50 is 13.8 µM.

On to `Cc1c(C(=O)NCc2cccc(Br)c2)oc2c1-c1[nH]ncc1CC2`, for which the IC50 was > 40 µM (inactive).

Take `Cc1ccccc1-c1nnc2sc(COc3ccc(Cl)cc3)nn12`: the IC50 is > 40 µM (inactive).

Regarding `COc1ccc(NC(=O)Cn2c(=O)n(Cc3ccco3)c(=O)c3ccc(C(=O)NC4CCCC4)cc32)cc1`, the IC50 is > 40 µM (inactive).

Regarding `Cn1c(=O)c(C(=O)Nc2ccc(Br)cc2)nc2ccccc21`, the IC50 was 26.5 µM.

Turning to `O=C(c1ccc(Cl)cc1)N(c1ccccn1)C1CCCCC1`, the IC50 is > 40 µM (inactive).

`O=C(Nc1ccc2c(c1)OCCO2)C1CCC(Cn2cnc3ccccc3c2=O)CC1` (stereo not drawn): the IC50 was > 40 µM (inactive).

`COc1ccc(N/C=C/c2onc(C)c2[N+](=O)[O-])c(OC)c1`: the IC50 was > 40 µM (inactive).

Turning to `Cc1cccc(C)c1NC(=O)CN1C(=O)CC(c2ccccc2)=Nc2ccccc21`, the IC50 is 26.4 µM.

As for `COc1ccc(CCNC(=O)Cn2c(=O)n(-c3ccc(CC(=O)NCCc4ccccc4)cc3)c(=O)c3ccccc32)cc1OC`, the IC50 was > 40 µM (inactive).

On to `CCOc1ccc(-c2noc(-c3nn(-c4cccc(OC)c4)ccc3=O)n2)cc1`, for which the IC50 is > 40 µM (inactive).

`COc1ccc(/C=C/C(=O)Nc2nc3n(n2)C(c2ccccc2)CC(=O)N3)cc1` (stereo not drawn): the IC50 was > 40 µM (inactive).

Take `Cc1ccc(C(=O)O)cc1NC(=O)C(Sc1cccc(NC(=O)c2cccc(Cl)c2)c1)c1ccccc1` (stereo not drawn): the IC50 was > 40 µM (inactive).

Turning to `CSc1ccc(CNC(=O)Cn2nc(C)c3c(C)n(-c4ccccc4)nc3c2=O)cc1`, the IC50 is 10.3 µM.

`O=C(Nc1ccccc1Cl)c1cc(-c2ccncc2)n[nH]1`: the IC50 is > 40 µM (inactive).

On to `O=C(O)c1cccc(NC(=O)C(Sc2cccc(NC(=O)c3cccc(Cl)c3)c2)c2ccccc2)c1` (stereo not drawn), for which the IC50 is 9.91 µM.

As for `Cc1cccc(COc2ccc(C3SCC(=O)Nc4n[nH]c(C)c43)cc2)c1` (stereo not drawn), the IC50 is > 40 µM (inactive).

For the compound `Cc1cc(C)cc(NC(=O)C2CC(=O)Nc3nc4ccccc4n32)c1` (stereo not drawn), the IC50 is > 40 µM (inactive).

In the case of `O=C(CCSc1nnnn1-c1ccccc1)Nc1cc(C(F)(F)F)ccc1Cl`, the IC50 was > 40 µM (inactive).

For the compound `CN1c2ccccc2C(=O)NC12CCN(C(=O)NCc1ccccc1)CC2`, the IC50 was > 40 µM (inactive).
